Data on 2 compounds can be found in patent US20220096436A1, “COMBINATION PRODUCT FOR THE TREATMENT OF CANCER” (Debiopharm International S.A., priority 2019, published 2022).

For data set [1], the system named is B16F10 melanoma tumors. The data set can be described thus: Anti-tumor efficacy in subcutaneous B16F10 mouse melanoma syngeneic model. The following applies: for TGI: vs vehicle; for mean tumor volume: vehicle group 1529 mm^3. In kind it is in vivo, C57BL/6 mice. The procedure: C57BL/6 mice were s.c. injected with 2×10^5 B16F10 tumor cells (see, for example, Bobek et al., 2010. Anticancer Res. 30(12):4799-803) and treatments started at a mean group tumor size of 94 mm^3 (n=8/group). Debio 1143 at 100 and 200 mg/kg p.o. was given on 5 days/week in combination with 10 mg/kg i.p. anti-PD1 twice weekly and compared to treatment with vehicle plus isotype antibody. In addition, the 100 mg/kg dose given twice weekly in combination with anti-PD1 at 10 mg/kg i.p. twice weekly was tested.

Data set [2] has as its system TS/A breast cancer. Briefly: Therapeutic efficacy in TS/A breast cancer mouse syngeneic model. The data set is classed as in vivo. The conditions noted are these: Debio 1143 combined with an anti-CTLA4 antibody. The method, then: (§1) The therapeutic efficacy of Debio 1143 combined with an anti-CTLA4 antibody was tested in a TS/A breast cancer mouse syngeneic model. Further, the therapeutic efficacy of Debio 1143 combined with an IDO inhibitor (INCB024360) was tested in a CT-26 colorectal cancer mouse syngeneic model.

Data set [3] relates to CT-26 colorectal cancer. Briefly: Therapeutic efficacy in CT-26 colorectal cancer mouse syngeneic model. The conditions noted are these: Debio 1143 combined with IDO inhibitor INCB024360. In kind it is in vivo. The procedure:
as §1

For data set [4] the following is noted: nivolumab 3-10 mg/kg q2w monotherapy across tumor types, n=2,578; cited from earlier work.
The test system of data set [5] is cancers. The following applies: nivolumab monotherapy, 27 trials, n=5,551, cited from earlier work.

Regarding `CN[C@@H](C)C(=O)N[C@H]1CN(C(=O)CC(C)C)CC[C@H]2CC[C@@H](C(=O)NC(c3ccccc3)c3ccccc3)N2C1=O` [Debio 1143, (5S,8S,10aR)-N-benzhydryl-5-((S)-2-(methylamino)propanamido)-3-(3-methylbutanoyl)-6-oxodecahydropyrrolo[1,2-a][1,5]diazocine-8-carboxamide], the TGI was 31% in data set [1] (day 19, Debio 1143 100 mg/kg p.o. QD1-5 combined with anti-PD-1 10 mg/kg, P=0.155); 61% in data set [1] (day 19, Debio 1143 200 mg/kg p.o. 5 days/week in combination with 10 mg/kg anti-PD-1, P=0.005); 9% in data set [1] (day 19, bi-weekly Debio 1143 100 mg/kg in combination with anti-PD-1 10 mg/kg, P=0.757). Further, the mean tumor volume in data set [1] (day 19, Debio 1143 200 mg/kg p.o. 5 days/week in combination with 10 mg/kg anti-PD-1) was determined as 594 mm^3; in data set [1] (day 19, bi-weekly Debio 1143 100 mg/kg in combination with anti-PD-1 10 mg/kg), 1396 mm^3; in data set [1] (day 19 from tumor inoculation, Debio 1143 100 mg/kg p.o. QD1-5 (5 days/week) combined with anti-PD-1 10 mg/kg i.p. twice weekly), 1049 mm^3. The “combination therapy compared to the respective monotherapies” value in data set [2] and in data set [3] was “did not lead to a statistically significant improvement” in each case.
As for “nivolumab: fully human immunoglobulin G4 (IgG4) monoclonal antibody, which binds to the PD-1 receptor and blocks its interaction with PD-L1 and PD-L2”, in data set [4], the “adverse reaction frequency: diarrhea” value is given as 13%, the “adverse reaction frequency: fatigue” value was 30%, the “adverse reaction frequency: pruritus” value is 13% and the “adverse reaction frequency: rash” value was 17%. Further, in data set [5] (95% CI 21-31), the “pooled objective response rate (ORR)” value is on record as 26%. Further, the “6-month PFS rate” value in data set [5] (95% CI 34-46) is recorded as 40%. For the same compound, in data set [5] (95% CI 43-62), the “1-year OS rate” value is on record as 52%.

As usually defined, the TGI is how far tumour growth fell short of that in controls.
